Laboratory results reported in PubChem BioAssay (NCI).
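Five concentrations, 48 hours, 96-well plates. TGI denotes the concentration required for complete inhibition of growth.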

Assays:
Test in all cases: NCI tumour cell line growth inhibition, 48 h
[1] = tested on: SN12K1 renal
[2] = tested on: DLD-1 colon
[3] = tested on: DMS 114 small cell lung
[4] = tested on: P388/ADR leukemia
[5] = tested on: M19-MEL melanoma
[6] = tested on: HOP-18 NSCLC
[7] = tested on: SNB-78 CNS
[8] = tested on: KM20L2 colon

Work on `NC1(C(=O)O)CCCC1` yielded a TGI [1] of over 625 µM, a TGI [2] of over 625 µM and a TGI [3] of over 625 µM. It also gave a TGI [4] of over 625 µM, a TGI [5] of over 625 µM and a TGI [6] of over 625 µM. It also gave a TGI [7] of over 444 µM and a TGI [8] of over 625 µM.
